These results are taken from US20260070929A1, “METHODS AND COMPOSITIONS FOR MODULATING KRAS(G12D)” (Ranok Therapeutics (Hangzhou) Co. LTD., priority 2022, published 2026).

In test [1] the target is T1, KRAS(G12D)/SOS1 (Homo sapiens, UniProt P01116, G12D).
T1 construct: purchased Cisbio 63ADK000CB17PEH
The test can be described thus: KRAS(G12D)/SOS1 homogeneous time-resolved fluorescence (HTRF) assay. The class given is binding. The following applies: absence of GTP; 4° C., 3 hr. On the procedure: Binding of test compounds to KRAS(G12D) target protein, which in turn blocks KRAS(G12D) interaction with the SOS1 protein, was measured in the absences of GTP by homogeneous time-resolved fluorescence using the KRAS-G12D/SOS1 Binding Assay Kit (Cisbio, 63ADK000CB17PEH), following the manufacturer's instructions, except as noted. 3-fold serial dilutions of each test compound were prepared ranging from 20 µM to 1.02 nM. The test compound was mixed and incubated with reaction components, incubated in a sealed plate at 4° C. for 3 hr and fluorescence was measured using a PerkinElmer Envision plate reader. The KRAS(G12D)-SOS1 IC50 values (the concentration of 50% of the maximal inhibition) were calculated using GraphPad Prism 7 software.

The subject of test [2] is AGS gastric carcinoma cells [heterozygous G12D]. The test can be described thus: Cancer cell line proliferation (CellTiter-Glo), AGS. The following applies: Homo sapiens, 72 hr treatment, read-out: AGS CTG (EC50). The class given is cell-based. The procedure: (§1) The following cancer cell lines were employed: AGS gastric carcinoma [heterozygous G12D](ATCC, CRL-1739); A-427 lung carcinoma [heterozygous G12D](ATCC, HTB-53); ASPC1 pancreatic adenocarcinoma [homozygous G12D](ATCC, CRL-1682) and SW1990 pancreatic adenocarcinoma [homozygous G12D](ATCC CRL-2172). Cell lines were cultured essentially according to ATCC recommendations.
(§2) AGS, A-427, ASPC1, SW1990, and GP2D cells were plated in 96-well tissue culture plates at 4,000 cells/well and incubated at 37° C./5% CO2 for 72 hr in 100 μl of media. 3-fold serial dilutions of each test compound were prepared ranging from 20 μM to 1.02 nM. Each cell line was then treated with test compounds at various concentrations with a final concentration of 0.5% DMSO/well, and then incubated at 37° C./5% CO2 for 72 hr. 100 µl of CellTiter-Glo® Reagent (Promega Corporation, Madison, WI) was added to each well and processed according manufacturer's protocol. Results were analyzed and EC50 values were calculated in GraphPad 7 software.
Background: In ATP-based viability assays light output follows the ATP content of the culture.

Test [3] concerns A-427 lung carcinoma cells [heterozygous G12D]. Description: Cancer cell line proliferation (CellTiter-Glo), A-427. The class given is cell-based. The following applies: Homo sapiens, A-427 cells, 72 hr treatment, read-out: A427 CTG (EC50). On the procedure: as §1, §2

T1 sequence (P01116 1-188 isoform P01116-2 G12D): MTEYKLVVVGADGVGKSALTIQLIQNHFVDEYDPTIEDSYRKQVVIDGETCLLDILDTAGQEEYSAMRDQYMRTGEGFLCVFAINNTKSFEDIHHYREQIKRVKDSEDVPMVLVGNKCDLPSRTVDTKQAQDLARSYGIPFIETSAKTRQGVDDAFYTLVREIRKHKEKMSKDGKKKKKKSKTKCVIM

Usually IC50 stands for the midpoint of a concentration-inhibition curve. Read a high IC50 as lower potency. One may read the EC50 as the concentration that produces a half-maximal response. `C#Cc1cccc2cc(O)cc(-c3ncc4c(N5CC6CCC(C5)N6)nc(OC[C@@H]5C[C@H](N6CCN(Cc7ccc(-n8c(C(=O)NC(C)C(F)(F)F)nnc8-c8cc(C(C)C)c(O)cc8O)cc7)CC6)CN5C)nc4c3F)c12` (stereo partly drawn) [Compound 98] displayed a half-inhibitory concentration (IC50) in test [1] of less than 100 nM. For the same molecule, the EC50 in test [2] and in test [3] was 100 to 1000 nM in each case.
`C#Cc1cccc2cc(O)cc(-c3ncc4c(N5CC6CCC(C5)N6)nc(OC[C@@H]5C[C@H](N6CCN(Cc7ccc(-n8c(C(=O)NCC(F)(F)F)nnc8-c8cc(CC)c(O)cc8O)cc7)CC6)CN5C)nc4c3F)c12` [Compound 99] gave an IC50 in test [1] of less than 100 nM. The EC50 in test [2] and in test [3] was 100 to 1000 nM in each case.
In the case of `CC(C)c1cc(-c2nnc(C(=O)NC(C)C(F)(F)F)n2-c2ccc(CN3CCN([C@H]4C[C@@H](COc5nc(N6CC7CCC(C6)N7)c6cnc(-c7cc(O)cc8ccccc78)c(F)c6n5)N(C)C4)CC3)cc2)c(O)cc1O` (stereo partly drawn) [Compound 100], the IC50 in test [1] was less than 100 nM. The concentration for a half-maximal effect (EC50) was less than 100 nM in test [2] and 100 to 1000 nM in test [3].
In test [1], `CC(C)c1cc(-c2nnc(C(=O)NCC(F)(F)F)n2-c2ccc(CN3CCN([C@H]4C[C@@H](COc5nc(N6CC7CCC(C6)N7)c6cnc(-c7cc(O)cc8ccccc78)c(F)c6n5)N(C)C4)CC3)cc2)c(O)cc1O` [Compound 101] registered an IC50 of less than 100 nM. For the same molecule, the results for the EC50 in test [2] and in test [3] were less than 100 nM and 100 to 1000 nM, respectively.
As to `COc1cccc2cccc(-c3ncc4c(N5CC6CCC(C5)N6)nc(OC[C@@H]5C[C@H](N6CCN(C(=O)C7CCN(Cc8ccc9c(c8)CN(C(=O)c8cc(C(C)C)c(O)cc8O)C9)CC7)CC6)CN5C)nc4c3F)c12` [Compound 104], the IC50 in test [1] was more than 1000 nM. Further, the 50% effective concentration (EC50) in test [2] and in test [3] was 100 to 1000 nM each time.
Molecule `CCc1cc(-c2nnc(C(=O)NCC(F)(F)F)n2-c2ccc(CN3CCN([C@H]4C[C@@H](COc5nc(N6CC7CCC(C6)N7)c6cnc(-c7cccc8cccc(OC)c78)c(F)c6n5)N(C)C4)CC3)cc2)c(O)cc1O` [Compound 105] registered an IC50 in test [1] of more than 1000 nM. Moreover, the EC50 in test [2] and in test [3] was 100 to 1000 nM in each case.
`COc1cccc2cccc(-c3ncc4c(N5CC6CCC(C5)N6)nc(OC[C@@H]5C[C@H](N6CCN(Cc7ccc(-n8c(C(=O)NC(C)C(F)(F)F)nnc8-c8cc(C(C)C)c(O)cc8O)cc7)CC6)CN5C)nc4c3F)c12` (stereo partly drawn) [Compound 106] gave a half-maximal inhibitory concentration (IC50) in test [1] of more than 1000 nM. Moreover, the EC50 in test [2] is less than 100 nM; in test [3], 100 to 1000 nM.
On to `CCc1cc(-c2nnc(C(=O)NCC(F)(F)F)n2-c2ccc(CN3CCN(C[C@H]4CC[C@@H](COc5nc(N6CC7CCC(C6)N7)c6cnc(-c7cccc8cccc(C)c78)c(F)c6n5)N4C)CC3)cc2)c(O)cc1O` [Compound 108], for which the concentration for half-maximal inhibition (IC50) in test [1] lay in the range of 100 to 1000 nM. Besides, the EC50 in test [2] and in test [3] was 100 to 1000 nM throughout.
As to `CC(C)c1cc(-c2nnc(C(=O)NCC(F)(F)F)n2-c2ccc(CN3CCN([C@H]4C[C@@H](COc5nc(N6CC7CCC(C6)N7)c6cnc(-c7cccc8cccc(F)c78)c(F)c6n5)N(C)C4)CC3)cc2)c(O)cc1O` [Compound 109], the IC50 in test [1] is 100 to 1000 nM. Further, the EC50 is less than 100 nM in test [2] and 100 to 1000 nM in test [3].
For `CC(C)c1cc(-c2nnc(C(=O)NC(C)C(F)(F)F)n2-c2ccc(CN3CCN(C[C@H]4C[C@@H](COc5nc(N6CC7CCC(C6)N7)c6cnc(-c7cc(O)cc8ccccc78)c(F)c6n5)N(C)C4)CC3)cc2)c(O)cc1O` (stereo partly drawn) [Compound 118], in test [1], the IC50 is less than 100 nM. Moreover, the EC50 in test [2] was less than 100 nM; in test [3], 100 to 1000 nM.
In test [1], `C#Cc1cccc2cc(O)cc(-c3ncc4c(N5CC6CCC(C5)N6)nc(OCC5(CN6CCC(C(=O)N7CCN(Cc8ccc(-n9c(C(=O)NCC(F)(F)F)nnc9-c9cc(C(C)C)c(O)cc9O)cc8)CC7)CC6)CC5)nc4c3F)c12` [Compound 119] showed an IC50 of less than 100 nM. Further, the EC50 in test [2] was less than 100 nM; in test [3] it was 100 to 1000 nM.
